Assay results taken from PubChem BioAssay AID1963986 (Molecular Pharmacology Branch, DTP, NCI, 2024).

Test system: 171881-019-R-J1-PDC tumor spheroid viability
Test: Anticancer human tumor 171881-019-R-J1-PDC patient-derived invasive breast carcinoma cell line growth inhibition [PI3K]
Details: spheroids with HUVEC and MSC; for IC50: curve of first compound; for viability, T/C: stronger effect = lower value
Method in brief: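 Multi-cell spheroids combine tumor cells with HUVEC and human MSCs, treated with targeted agents alone or with inavolisib, alpelisib, duvelisib or copanlisib. Concentrations fall in half-log steps from at or near clinical Cmax, or from 10 microM where Cmax is unknown; viability read-out.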

[1] = second compound 0.00316 µM, first compound 0.0316 µM
[2] = second compound 0.00316 µM, first compound 0.1 µM
[3] = second compound 0.00316 µM, first compound 0.316 µM
[4] = second compound 0.00316 µM, first compound 1 µM
[5] = second compound 0.01 µM, first compound 0.0316 µM
[6] = second compound 0.01 µM, first compound 0.1 µM
[7] = second compound 0.01 µM, first compound 0.316 µM
[8] = second compound 0.01 µM, first compound 1 µM
[9] = second compound 0.0316 µM, first compound 0.0316 µM
[10] = second compound 0.0316 µM, first compound 0.1 µM
[11] = second compound 0.0316 µM, first compound 0.316 µM
[12] = second compound 0.0316 µM, first compound 1 µM
[13] = second compound 0.1 µM, first compound 0.0316 µM
[14] = second compound 0.1 µM, first compound 0.1 µM
[15] = second compound 0.1 µM, first compound 0.316 µM
[16] = second compound 0.1 µM, first compound 1 µM
[17] = second compound 0.316 µM, first compound 0.0316 µM
[18] = second compound 0.316 µM, first compound 0.1 µM
[19] = second compound 0.316 µM, first compound 0.316 µM
[20] = second compound 0.316 µM, first compound 1 µM
[21] = second compound 1 µM, first compound 0.0316 µM
[22] = second compound 1 µM, first compound 0.1 µM
[23] = second compound 1 µM, first compound 0.316 µM
[24] = second compound 1 µM, first compound 1 µM
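Also: spheroids exposed to compound for 7 days before viability read.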
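For viability, T/C in this document: 100% = DMSO vehicle-treated spheroids.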

CC(C)NCC(C(=O)N1CCN(c2ncnc3c2C(C)CC3O)CC1)c1ccc(Cl)cc1 (centres undefined) + COc1c(OCCCN2CCOCC2)ccc2c3n(c(=NC(=O)c4cnc(N)nc4)nc12)CCN3
IC50 (second compound 0.00316 µM): 200 nM | IC50 (second compound 0.01 µM): < 31.6 nM | IC50 (second compound 0.0316 µM): < 31.6 nM | IC50 (second compound 0.1 µM): < 31.6 nM | IC50 (second compound 0.316 µM): < 31.6 nM | IC50 (second compound 1 µM): < 31.6 nM | viability, T/C [1]: 63.8% | viability, T/C [2]: 57% | viability, T/C [3]: 44.8% | viability, T/C [4]: 27.6% | viability, T/C (second compound 0.00316 µM, first compound 3.16 µM): 11.6% | viability, T/C (second compound 0.00316 µM, first compound 10 µM): 8.17% | viability, T/C [5]: 48.5% | viability, T/C [6]: 47% | viability, T/C [7]: 36.4% | viability, T/C [8]: 24.1% | viability, T/C (second compound 0.01 µM, first compound 3.16 µM): 12.4% | viability, T/C (second compound 0.01 µM, first compound 10 µM): 8.98% | viability, T/C [9]: 25% | viability, T/C [10]: 24.9% | viability, T/C [11]: 25.8% | viability, T/C [12]: 14.4% | viability, T/C (second compound 0.0316 µM, first compound 3.16 µM): 8.88% | viability, T/C (second compound 0.0316 µM, first compound 10 µM): 5.68% | viability, T/C [13]: 7.43% | viability, T/C [14]: 8.22% | viability, T/C [15]: 8.03% | viability, T/C [16]: 6.41% | viability, T/C (second compound 0.1 µM, first compound 3.16 µM): 5.14% | viability, T/C (second compound 0.1 µM, first compound 10 µM): 3.1% | viability, T/C [17]: 1.9% | viability, T/C [18]: 2.03% | viability, T/C [19]: 2.26% | viability, T/C [20]: 2.16% | viability, T/C (second compound 0.316 µM, first compound 3.16 µM): 1.57% | viability, T/C (second compound 0.316 µM, first compound 10 µM): 1.13% | viability, T/C [21]: 0.99% | viability, T/C [22]: 1.4% | viability, T/C [23]: 1.49% | viability, T/C [24]: 1.35% | viability, T/C (second compound 1 µM, first compound 3.16 µM): 1.05% | viability, T/C (second compound 1 µM, first compound 10 µM): 0.68%

CCN1CCN(Cc2ccc(Nc3ncc(F)c(-c4cc(F)c5nc(C)n(C(C)C)c5c4)n3)nc2)CC1 + COc1c(OCCCN2CCOCC2)ccc2c3n(c(=NC(=O)c4cnc(N)nc4)nc12)CCN3
IC50 (second compound 0.00316 µM): > 1000 nM | IC50 (second compound 0.01 µM): > 1000 nM | IC50 (second compound 0.0316 µM): < 3.16 nM | IC50 (second compound 0.1 µM): < 3.16 nM | IC50 (second compound 0.316 µM): < 3.16 nM | IC50 (second compound 1 µM): < 3.16 nM | viability, T/C (second compound 0.00316 µM, first compound 0.00316 µM): 71.9% | viability, T/C (second compound 0.00316 µM, first compound 0.01 µM): 73.1% | viability, T/C [1]: 83.8% | viability, T/C [2]: 80.4% | viability, T/C [3]: 93.8% | viability, T/C [4]: 99.6% | viability, T/C (second compound 0.01 µM, first compound 0.00316 µM): 48.9% | viability, T/C (second compound 0.01 µM, first compound 0.01 µM): 56.9% | viability, T/C [5]: 53.6% | viability, T/C [6]: 63.8% | viability, T/C [7]: 69% | viability, T/C [8]: 83.2% | viability, T/C (second compound 0.0316 µM, first compound 0.00316 µM): 27.4% | viability, T/C (second compound 0.0316 µM, first compound 0.01 µM): 31.5% | viability, T/C [9]: 33.8% | viability, T/C [10]: 36.9% | viability, T/C [11]: 44.6% | viability, T/C [12]: 50.6% | viability, T/C (second compound 0.1 µM, first compound 0.00316 µM): 10.5% | viability, T/C (second compound 0.1 µM, first compound 0.01 µM): 10.2% | viability, T/C [13]: 12.2% | viability, T/C [14]: 12.8% | viability, T/C [15]: 16% | viability, T/C [16]: 23.8% | viability, T/C (second compound 0.316 µM, first compound 0.00316 µM): 2.23% | viability, T/C (second compound 0.316 µM, first compound 0.01 µM): 2.11% | viability, T/C [17]: 2.24% | viability, T/C [18]: 2.94% | viability, T/C [19]: 4.39% | viability, T/C [20]: 7.79% | viability, T/C (second compound 1 µM, first compound 0.00316 µM): 0.86% | viability, T/C (second compound 1 µM, first compound 0.01 µM): 1.08% | viability, T/C [21]: 1.81% | viability, T/C [22]: 1.03% | viability, T/C [23]: 1.58% | viability, T/C [24]: 2.28%
